The subject of assay [1] is human naïve state stem cells. Put plainly: stem cell drug screening assay on naïve state stem cells. To be noted: 500 nM or 1 uM, cells from NME7AB or NME1 dimers, growth factor absent. The class given is cell-based.
Assay [2] has as its system human primed state stem cells. As to the kind of experiment: stem cell drug screening assay on primed state stem cells. The class given is cell-based. To be noted: treated for 3 days, bFGF absent. The procedure:
The stem cell screening assay, was performed in both the presence and absence of the stem cell growth factors: NME7AB for growing naïve stem cells or FGF for growing primed stem cells. If the cognate growth factor was present, then the biological or small molecule would have to compete away the growth factor to get an effect. Therefore, we expected to see more of an effect when the growth factor, FGF for primed stem cells or NME7AB or NME1 dimers for naïve stem cells, was absent. The effect of the compounds on stem cells was visually determined and compounds were ranked 0-4, with 4 being the greatest effect and 0 being no observable effect. The major effect that was observed was a change from pluripotent stem cell morphology, which is a cobblestone pattern of small round cells with a large nucleus to cytoplasm ratio, to that of differentiating stem cells, which are elongated, large and flattened cells with a smaller nucleus to cytoplasm ratio. […] The compounds were added to a final concentration of 6 uM to either naïve state stem cells or primed state stem cells. In this particular case, the naïve state stem cells were maintained in a naïve state by culturing in a media containing NME7AB or NME1 dimers. However, other methods such as 2i and 5i (Silva et al., 2008, Nichols and Smith, 2009, Theunissen et al., 2014)] can be used to maintain stem cells in a more naïve state. In this case primed state stem cells were cultured in bFGF over a layer of MEFs, although it is known that any bFGF containing media will maintain stem cells in the primed state.
Stem cells whether embryonic or induced pluripotent stem (iPS) cells were cultured in a minimal, serum-free media that contained human recombinant bFGF at a concentration of 8 ng/mL. The stem cells were plated over a layer of inactivated mouse embryonic fibroblasts, aka MEFs, which secrete additional uncharacterized growth factors and cytokines.
Human naïve state and primed stem cells were cultured in parallel for at least 5 passages to guarantee normal differentiation-free growth. The stem cells were plated in 12-well cell culture plates with 50,000 cells per well. Cells were cultured in their respective media, either bFGF media or NME7AB media for 24 hours. Media was then removed and replaced with media devoid of bFGF or NME7AB, when indicated. Agents being tested for their ability to induce differentiation of naïve stem cells were added to the media at the concentrations indicated. After 72 hours, photographs were taken see FIGS. 1-10.
Human naïve state and primed stem cells were cultured in parallel for at least 5 passages to guarantee normal differentiation-free growth. The stem cells were plated in 12-well cell culture plates with 50,000 cells per well. Cells were cultured in their respective media, either bFGF media or NME7AB media for 24 hours. Media was then removed and replaced with media devoid of bFGF or NME7AB. […] Media was changed after 48 hours and replaced with fresh media containing the BRD4 inhibitors. After 4 days the experiment was stopped. Photographs were taken and cell pellets collected for further analysis, see FIGS. 11-16.

The subject of assay [3] is SK-OV-3 MUC1* positive ovarian cancer cells. Put plainly: cancer cell proliferation assay (Calcein). It is filed as cell-based. To be noted: 96 hours (FIG. 112). As to the method:
Small molecule inhibition of cancer cell proliferation studies were also performed on several cancer sub-types. […] The small molecules of the invention had the most robust effect on T47D breast cancer cells, which are highly positive for MUC1* growth factor receptor, and its activating ligands NME7AB and NME7-X1. […] For the cancer cell proliferation experiment cancer cells were plated at constant densities (6000 cells/well) into a 96-well White-walled/Clear-bottom Tissue Culture Treated plate (Corning Incorporated, Big Flats, N.Y.). Small molecule analogs are added at T=24 hours in media with 2% FBS. […] […] Calcein fluorescence (final concentration 0.5 uM) is used to assess cell viability. Cancer cell fluorescence is measured in a TECAN SAFIRE^2 spectrophotometer plate reader. The plate is then imaged using an Olympus IX71 fluorescence imaging microscope and montage of the resulting images are assembled using ImageJ.

The subject of assay [4] is E-cadherin, fibronectin, vimentin and NF1 expression in naïve stem cells. Put plainly: RT-PCR of differentiation markers in treated naïve stem cells. It is filed as cell-based, human. As to the method: FIG. 161 is a graph of RT-PCR measurement of naïve stem cells that have been treated with compounds of the invention. The genes whose expression is measured are E-cadherin, which goes […] as cells undergo epithelial to mesenchymal transition, fibronectin and vimentin, which both increase as stem cells initiate differentiation and NF1, which is one of the first genes to increase when stem cells begin to differentiate down the neural lineage. […] E-cadherin is the opposite; it […] as cells become cancerous. […] Expression of metastatic marker E-cadherin was reduced and expression of differentiation markers fibronectin, vimentin and NF1 were increased (FIG. 162-FIG. 163). Novel compounds of the invention are highly specific. […] Although we discovered that NME1 dimers, NME7AB and NME7-X1 are all activating ligands of the MUC1* growth factor receptor and they bind to its extracellular domain, we have developed ample evidence that both NME7AB and NME7-X1 have other binding partners and can exert oncogenic effects, independent of MUC1*.

SMILES strings stand for the structures. Entries after “also recorded” stand apart in the source; their conditions may differ.

Consider `Cc1sc2c(c1C)C(c1ccc(Cl)cc1)=N[C@@H](CC(=O)OC(C)(C)C)c1nnc(C)n1-2` [JQ1+, JQ1], for which the “effect on naïve stem cell differentiation and growth” value was “dramatically induced differentiation” in assay [1] and “inhibitory effect” in assay [1] (listed as JQI). Further, the “effect on primed stem cell colony size and morphology” value in assay [2] (listed as JQ1(+)) is listed as “modest effect on the size of primed stem cell colonies; also recorded: some abnormal morphology”. The “induction of differentiation of primed state stem cells” value is given as “None of these agents appeared to induce differentiation” in assay [2] (listed as JQ1(+)) and “not primed stem cell growth” in assay [2] (listed as JQI). Also, in assay [3], the “effect on growth of SK-OV-3 cells” value is reported as “slight effect”. In addition, the “up-regulation of markers of differentiation in naïve stem cells (RT-PCR)” value in assay [4] is “did not cause up-regulation of markers of differentiation”.

(Values after US11931347B2, “Method of screening for agents for differentiating stem cells” (MINERVA BIOTECHNOLOGIES CORPORATION, priority 2015, dated 2024).)
